# Assay results published in US20230087766A1, “METHODS OF REACTIVATING LATENT HUMAN IMMUNODEFICIENCY VIRUS AND RELATED COMPOSITIONS” (priority 2017, published 2023).
# Experiments:
# Assay type in all cases: cell-based
# [1] = tested on: HIV LTR in J-Lat A1 cells; test: Chromatin immunoprecipitation (ChIP) at the HIV LTR; conditions: pretreatment with AR12, then Na-Cro
# Excerpt: FIG. 2 is a series of images and graphs showing that histone crotonylation by sodium crotonate addition re-programs histone tails at the HIV LTR. Panel A illustrates that Na-Cro addition increased global expression of H3K4Cro, H3K4Ac, and H3K18Ac while decreasing H3K27Me3. Panel B illustrates expression of transcription factors after Na-Cro addition in J-Lat Al cells. Panels C-E illustrate that Na-Cro addition re-programmed histone tails at the HIV LTR. Chromatin immunoprecipitation (ChIP) assay was performed by using anti-H3K4Cr, anti-H3K4Ac, and anti-H3K27Me3 antibodies after J-Lat Al cells were treated with 30 mM Na-Cro for 4 hours. PCR primers were specific for the HIV LTR region.
# (§1) FIG. 7 is a series of graphs showing that induction of de-crotonylation of histone tail at HIV LTR is independent of SIRTs. Panel A illustrates that J-Lat Al cells were pre-treated with either 50 μM RSV or 1 mM NAM, followed by 30 mM Na-Cro addition to reactivate latent HIV expression. Untreated controls were compared with positive controls involving individual treatment of Na-Cro, RSV, or NAM. *, p<0.05; **, p<0.01 compared with control treatment. #, p<0.05 compared with Na-Cro treatment. Panel B illustrates that gene expression of sirt1 or sirt3 was measured by RT-qPCR in J-Lat Al cells treated with either 25 μM RSV, 50 μM RSV, or 1 mM NAM. *, p<0.05 and **, p<0.01 compared with control treatment. Panels C and D illustrate that histone crotonylation induces binding of SIRT3 and SIRT1 at the HIV LTR. J-Lat Al cells were treated with 30 mM Na-Cro for 4 hours and analyzed by ChIP assays using anti-SIRT1 or anti-SIRT3 antibodies. *, p<0.05 compared with control treatment.
# Chromatin Immunoprecipitation (ChIP): J-Lat Al cells (2.5 to 5 million) were utilized in ChIP assays with anti-H3K18Ac, anti-H3K4Cr, anti-H3K27Me3, anti-H3K4Ac, anti-SIRT3 (CELL SIGNALING TECHNOLOGY®), and anti-SIRT1 (CELL SIGNALING TECHNOLOGY®) antibodies. ChIP assays were performed using […]® Kit from CELL SIGNALING TECHNOLOGY® as per the manufacturer's recommendations. Samples were cross-linked using formaldehyde and 150-1000 bp fragments were made using Micrococcal Nuclease digestion and 7 cycles of 30 seconds on/30 seconds off sonication. Antibodies were used to probe respective proteins. Purification of DNA was performed using the […]® Kit Protocol. Purified ChIP DNA was used in SYBR® Green qPCR using ChIP primers specific for HIV LTR.
# [2] = tested on: latent HIV (HIV LTR-driven transcription) in J-Lat A1 cells; conditions: for reactivation of latent HIV by epigenetic modifiers: 30 mM Na-Cro, 500 nM SAHA, 2 μM GSK343 or 5 μM AZA-dc; for reactivation of latent HIV by epigenetic modifiers / increase in reactivation of latent HIV in combination with Na-Cro as compared to single treatment: RT-qPCR; for increase in reactivation of latent HIV in combination with Na-Cro as compared to single treatment: J-Lat A1 cells pretreated with Na-Cro, then the LRA added
# Protocol: (§2) Cell culture: J-Lat Al cells (derived from Jurkat cells harboring HIV LTR-Tat-GFP gene) and U1 cells (promonocytic cell line harboring one copy of HIV genome with defective tat gene) were obtained from NIH AIDS Reagent Program and cultured at 37° C. with 5% CO2 in RPM11640 medium containing 10% FBS and 1% penicillin-streptomycin as previously described (see G. Jiang, et al. PLoS Pathogens 11, e1005066 (2015)).
# (§3) For inhibiting ACSS2 and crotonylation, cells were pretreated with ACSS2 inhibitor, AR12 (SELLECK CHEMICALS™, Houston, Tex.), for 30 minutes, followed by Na-Cro treatment for 4 or 18 hours.
# (§4) Real-Time PCR Analysis: HIV gene expression was measured using real-time PCR in J-Lat Al cells treated with LRAs. Total nucleic acid was extracted using RNEASY™ Kit, genomic DNA digested using DNase I and total RNA reverse transcribed using Superscript III to synthesize cDNA. […] […] TAMRA-3′ (SEQ ID NO:3).
# [3] = tested on: latent HIV in primary CD4+ T cells from HIV-infected patients under suppressive ART; test: HIV transcription by ddPCR in primary CD4+ T cells from HIV-infected patients; conditions: 6 hours
# Protocol: Panels A-C illustrate that primary CD4+ T cells were treated with […] PMA 2 plus 2 μg/ml ionomycin, 12 nM PEP005, 40 mM Na-Cro, or 12 nM PEP005 combined with 40 mM Na-Cro for 6 hours. Viral transcription from total RNA was analyzed by RT-ddPCR with primers targeting initiation (TAR region) (see panel A), elongation (long LTR) (see panel B), or full transcription (poly A region) (see panel C) of the HIV genome. Panel D illustrates a working model of epigenetic regulation of HIV latency/transcription by histone crotonylation.
# To validate this finding in the ex vivo primary CD4+ T cells from patients the peripheral blood samples from 6 HIV-infected patients under suppressive ART were obtained. They had undetectable plasma viral load (<20 copies/ml plasma) and >400 CD4+ T cell number per […] (see Table 1). Primary CD4+ T cells were treated with PMA/Ionomycin, PEP005, Na-Cro, or PEP005 in combination with Na-Cro for 6 hours. HIV transcription following reactivation was measured by digital droplet PCR (ddPCR) targeting TAR region (initiation), long LTR region (elongation), or Poly A region (full transcription) of HIV genome (see G. Jiang, et al. PLoS pathogens 11, e1005066 (2015); P. Kaiser, et al. Journal of virological methods 242, 1-8 (2017); and L. Shan, et al. Journal of Virology 87, 6521-6525 (2013)).
# Primary CD4+ T Cell Isolation, Treatment, and Digital Droplet PCR Assays: Peripheral blood samples were obtained from HIV-infected individuals (age ranging from 46-62 years old) on suppressive ART for >8 years (n=6). The plasma viral loads were below the detective level (<20 copies/ml plasma) and the average CD4+ T cell number was 664.4±180.5 cells/ml. The primary CD4+ T cells were isolated using the EASYSEP™ kit ([…]™ Technologies Inc., Vancouver, BC, Canada) as previously described (see G. Jiang, et al. PLoS pathogens 11, el 005066 (2015) and G. Jiang, et al. AIDS 28, 1555-1566 (2014)). The purified CD4+ T cells were plated at a density of 0.5-1×10^6 cells and treated with Control, 200 ng/ml PMA plus 2 μM lonomycin, 12 nM PEP005, 40 mM Na-Cro, or 12 nM PEP005 plus 40 mM Na-Cro for 6 hours. Cell pellets were collected for RNA isolation. Initiation, elongation, or full transcription of HIV was analyzed with ddPCR assays as reported before (see G. Jiang, et al. PLoS pathogens 11, e1005066 (2015); P. Kaiser, et al. Journal of virological methods 242, 1-8 (2017); and L. Shan, et al. Journal of virology 87, 6521-6525 (2013)).
# sirt3 = sirt3 gene expression by RT-qPCR in J-Lat A1 cells; conditions: 25 μM or 50 μM RSV
# Protocol: as §1
# [4] = tested on: latent HIV in resting CD4+ T cells from HIV-infected individuals under ART; test: Quantitative Viral Outgrowth Assay (QVOA), p24 ELISA; conditions: resting CD4+ T cells from 5 HIV-infected individuals under ART; ex vivo
# Protocol: It was tested whether the histone crotonylation inducer, sodium crotonate, can reactivate latent HIV reservoirs from a patient under ART. Peripheral blood samples were obtained from 5 HIV-infected individuals with undetectable plasma viral loads and higher CD4+ T cell numbers (see Table 1). One million resting CD4+ T cells were treated with IL-2, PHA+IL-2, or IL-2+Na-Cro, and HIV p24 production was measured by QVOA using p24 ELISA as a measure of HIV reactivation.
# Quantitative Viral Outgrowth Assay: Peripheral blood mononuclear cells (PBMC) were obtained from HIV-infected individuals on suppressive ART (n=5) by continuous-flow leukopheresis. Isolation of resting CD4+ T cells and quantification of replication competent virus was performed as previously described (see S. Dandekar, et al. Current HIV/AIDS reports 4, 10-15 (2007)). […] Cultures were scored as positive if p24 was detected at day 15 and was increased in concentration at day 19. […]
# latent HIV in U1 cells = test: Reactivation of latent HIV in U1 cells by RT-qPCR
# Protocol: as §2, §3, §4
# [5] = primary CD4+ T cells of 6 patients, 40 mM Na-Cro or 12 nM PEP005, ddPCR
structure (smiles),measurement,setting,value
"NCC(=O)Nc1ccc(-n2nc(C(F)(F)F)cc2-c2ccc3c(ccc4ccccc43)c2)cc1 [AR12, reference compound]",histone crotonylation at HIV LTR,[1],markedly dampened
same,decrease in latent HIV reactivation by Na-Cro,"[2]; pretreatment with AR12 for 30 minutes, then Na-Cro",> 60%
Nc1ncn([C@H]2C[C@H](O)[C@@H](CO)O2)c(=O)n1 [AZA-dC],reactivation of latent HIV by epigenetic modifiers,[2]; J-Lat A1 cells,minimally reactivated latent HIV
CCCc1cc(C)[nH]c(=O)c1CNC(=O)c1cc(-c2ccnc(N3CCN(C)CC3)c2)cc2c1cnn2C(C)C [GSK343],synergistic effect on HIV reactivation in combination with Na-Cro,[2]; J-Lat A1 cells,did not show any synergistic effect
same,reactivation of latent HIV by epigenetic modifiers,[2]; J-Lat A1 cells,minimally reactivated latent HIV
Cc1sc2c(c1C)C(c1ccc(Cl)cc1)=N[C@@H](CC(=O)OC(C)(C)C)c1nnc(C)n1-2 [JQ1],increase in reactivation of latent HIV in combination with Na-Cro as compared to single treatment,[2],1.8 fold
"NC(=O)c1cccnc1 [NAM, nicotinamide]",viral reactivation after pretreatment,"[2]; J-Lat A1 cells, 1 mM NAM pretreatment then 30 mM Na-Cro",less than 4 fold
"C/C=C(/C)C(=O)O[C@H]1C(C)=C[C@]23C(=O)[C@@H](C=C(CO)[C@@H](O)[C@]12O)[C@H]1[C@@H](C[C@H]3C)C1(C)C [PEP005, ingenol-3-angelate]","elongation of HIV transcripts (long LTR), patients responding",[3]; [5],5 of 6 patient samples
same,"full-length transcription of HIV (poly A region), patients responding",[3]; [5],5 of 6 patient samples
same,"initiation of HIV transcription (TAR region), patients responding",[3]; [5],all six patients
same,"reactivation of latent HIV, combination of Na-Cro with PEP005","[3]; primary CD4+ T cells, 12 nM PEP005 combined with 40 mM Na-Cro, also higher than PMA/Ionomycin",greater reactivation of latent HIV than either agent alone
same,increase in reactivation of latent HIV in combination with Na-Cro as compared to single treatment,[2],8 fold
"Oc1ccc(C=Cc2cc(O)cc(O)c2)cc1 [RSV, Resveratrol]",increase in expression of sirt3,sirt3,two to three
same,crotonyl-CoA-mediated latent HIV reactivation after pretreatment,"[2]; J-Lat A1 cells, 50 μM RSV pretreatment then 30 mM Na-Cro, compared to crotonyl-CoA alone",27 fold
"O=C(CCCCCCC(=O)Nc1ccccc1)NO [SAHA, suberoylanilide hydroxamic acid]","replication-competent HIV recovered (HIV reactivation, QVOA)",[4],able to flush out the latent HIV in these patient cells except for one patient
same,"HIV reactivation, pretreatment with SAHA followed by Na-Cro addition",latent HIV in U1 cells; 500 nM SAHA then 40 mM Na-Cro,abolished the combination effect
same,"HIV reactivation, pretreatment with Na-Cro then SAHA, compared with SAHA alone","latent HIV in U1 cells; 40 mM Na-Cro then 500 nM SAHA, overnight, real-time PCR",enhanced SAHA-reactivation of latent HIV
same,increase in reactivation of latent HIV in combination with Na-Cro as compared to single treatment,[2],2.0 fold
same,"HIV reactivation, pretreatment with SAHA followed by Na-Cro addition","[2]; J-Lat A1 cells, 250 nM SAHA then 40 mM Na-Cro overnight",abolished the combination effect
same,reactivation of latent HIV by epigenetic modifiers,[2]; J-Lat A1 cells,comparable capacity to reactivate latent HIV
CCC/C=C/C=C/C(=O)O[C@H]1/C(=C/C(=O)OC)C[C@H]2C[C@H]([C@@H](C)O)OC(=O)C[C@H](O)C[C@@H]3C[C@H](OC(C)=O)C(C)(C)[C@](O)(C[C@@H]4C/C(=C/C(=O)OC)C[C@H](/C=C/C(C)(C)[C@]1(O)O2)O4)O3 [bryostatin-1],increase in reactivation of latent HIV in combination with Na-Cro as compared to single treatment,[2],3.3 fold
